Reference: patent publication US5166213A, “4-pyridyl substituted-1,3-dioxane compounds” (Imperial Chemical Industries PLC, priority 1988, dated 1992)

Assays:
[1] = observable signs of toxicity in test (f), rats; assay type: in vivo, rat; details: oral dose of 25 mg/kg
TXA2 synthase [2] = target: T1, TXA2 synthase (Homo sapiens, UniProt P24557); assay: test (e): in vitro inhibition of human platelet microsomal TXA2 synthase (conversion of [1-^14 C]arachidonic acid to TXB2); assay type: biochemical
T1 construct: using a human platelet microsomal TXA2 synthase preparation; from tissue; host or cells: human platelet microsomes
T1 sequence (P24557 1-533): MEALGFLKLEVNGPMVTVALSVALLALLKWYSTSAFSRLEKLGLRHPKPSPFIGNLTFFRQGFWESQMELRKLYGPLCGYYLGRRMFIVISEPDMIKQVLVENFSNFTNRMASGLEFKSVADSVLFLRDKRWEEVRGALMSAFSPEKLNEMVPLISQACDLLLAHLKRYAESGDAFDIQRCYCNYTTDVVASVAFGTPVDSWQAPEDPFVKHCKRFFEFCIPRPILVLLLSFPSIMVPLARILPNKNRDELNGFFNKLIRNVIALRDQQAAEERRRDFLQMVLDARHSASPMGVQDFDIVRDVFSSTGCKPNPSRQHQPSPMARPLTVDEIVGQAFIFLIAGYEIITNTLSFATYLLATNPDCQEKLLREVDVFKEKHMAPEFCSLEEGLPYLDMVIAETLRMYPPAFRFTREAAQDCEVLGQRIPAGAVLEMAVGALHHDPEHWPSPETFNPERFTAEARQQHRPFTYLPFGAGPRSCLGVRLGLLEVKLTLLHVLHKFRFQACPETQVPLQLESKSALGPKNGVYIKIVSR

thromboxane receptor = target: T2, thromboxane receptor (Homo sapiens, UniProt P21731); assay: test (b): blood platelet aggregation, antagonism of U46619 in citrated platelet-rich plasma; assay type: cell-based; details: Example 2, unit inferred
T2 construct: aggregating human, citrated, platelet-rich plasma; from tissue; host or cells: human platelets (citrated platelet-rich plasma)
T2 sequence (P21731 1-343): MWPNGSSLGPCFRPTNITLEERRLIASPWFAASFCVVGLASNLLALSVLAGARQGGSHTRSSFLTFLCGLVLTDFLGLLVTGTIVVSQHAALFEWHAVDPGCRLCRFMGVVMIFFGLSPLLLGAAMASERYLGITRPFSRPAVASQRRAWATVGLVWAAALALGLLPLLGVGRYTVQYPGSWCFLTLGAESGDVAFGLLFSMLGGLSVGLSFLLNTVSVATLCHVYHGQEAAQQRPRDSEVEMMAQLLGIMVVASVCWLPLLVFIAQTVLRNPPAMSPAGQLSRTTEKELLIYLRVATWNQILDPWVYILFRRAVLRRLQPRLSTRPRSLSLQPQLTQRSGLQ
Source text: (b) a blood platelet aggregation test based on that described by Born (Nature, 1962, 194, 927-929) and involving:
(i) aggregating human, citrated, platelet-rich plasma by addition of the TXA2 mimetic agent U46619 so that a dose-response curve is generated;
(ii) generating a dose-response curve for U46619 stimulated platelet aggregation in the presence of increasing amounts of test compound (generally in the range 10^-5 M to 10^-10 M); and
(iii) calculating a KB value indicating potency of TXA2 antagonism for the test compound, averaged over several concentrations, from the calculated 50% response value for U46619 aggregation in the presence and absence of test compound; or […]

TXA2 synthase [3] = assay: test (f): TXB2 production in blood samples from dosed rats; assay type: in vivo, rat; details: oral dose of 25 mg/kg, up to 5 hours
Method: The samples treated with anti-coagulant are first incubated at 37° C. with collagen (at about 100 micro M), then mixed with the cyclooxygenase inhibitor indomethacin (at about 10^-3 M), centrifuged and the level of the TXA2 metabolite, TXB2, determined by a standard radioimmunoassay technique. By comparison of the amount of TXB2 present in the plasma from animals dosed with test compound with that in the plasma of a control group dosed with placebo, the TXA2 synthase inhibitory properties may be assessed.

For O=C(O)CC/C=C\C[C@@H]1CO[C@H](c2ccccc2Cl)O[C@@H]1c1cccnc1 (relative stereo) [Example 2, 4(Z)-6-[(2,4,5-cis)-2-(2-chlorophenyl)-4-(3-pyridyl)-1,3-dioxan-5-yl]hexenoic acid], the “observable signs of toxicity” value [1] was “without any observable signs of toxicity”, the IC50 (TXA2 synthase [2]) was 48 nM and the Kb (thromboxane receptor) was 650 nM. For the same compound, the “inhibition of TXB2 production” value (TXA2 synthase [3]) was “essentially complete inhibition of TXB2 production”.
